As usually defined, the Ki is the equilibrium dissociation constant of an inhibitor or competing ligand from its target. Read a low Ki as tighter binding.

The target of assay [1] is T1, D(2) dopamine receptor (Rattus norvegicus, UniProt P61169). Briefly: Binding affinity towards Dopamine receptor D2 by displacing [3H]spiperone.
Assay [2] concerns the target Serotonin 2 (5-HT2) receptor (Rattus norvegicus, UniProt P30994+P08909+P14842). Kind of assay: The compound was tested in vitro for binding affinity towards 5-hydroxytryptamine 2 receptor by displacing [125]I-LSD radioligand. Format: protein assay.
Assay [3] deals with Dopamine D2 receptor/Serotonin 2 (5-HT2) receptor (Rattus norvegicus) (UniProt P61169+P30994+P08909+P14842). Briefly: Relative binding affinity for dopamine D2 and 5-HT2 receptors. The format is protein assay.
Chain of Dopamine D2 receptor/Serotonin 2 (5-HT2) receptor (Rattus norvegicus) (P08909 whole entry, looked up): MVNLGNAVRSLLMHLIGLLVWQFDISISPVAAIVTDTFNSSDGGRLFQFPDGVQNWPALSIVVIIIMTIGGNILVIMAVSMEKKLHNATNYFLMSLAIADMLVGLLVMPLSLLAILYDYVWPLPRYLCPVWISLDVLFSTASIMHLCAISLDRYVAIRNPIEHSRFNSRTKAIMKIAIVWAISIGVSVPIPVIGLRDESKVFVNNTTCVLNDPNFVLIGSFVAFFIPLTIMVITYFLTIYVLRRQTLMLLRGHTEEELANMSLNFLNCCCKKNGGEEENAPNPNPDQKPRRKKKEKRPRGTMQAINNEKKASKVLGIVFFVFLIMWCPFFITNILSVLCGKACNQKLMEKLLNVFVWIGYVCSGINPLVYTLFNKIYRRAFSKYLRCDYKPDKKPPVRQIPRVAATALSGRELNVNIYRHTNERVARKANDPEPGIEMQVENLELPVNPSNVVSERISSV
Chain of Dopamine D2 receptor/Serotonin 2 (5-HT2) receptor (Rattus norvegicus) (P14842 whole entry, looked up): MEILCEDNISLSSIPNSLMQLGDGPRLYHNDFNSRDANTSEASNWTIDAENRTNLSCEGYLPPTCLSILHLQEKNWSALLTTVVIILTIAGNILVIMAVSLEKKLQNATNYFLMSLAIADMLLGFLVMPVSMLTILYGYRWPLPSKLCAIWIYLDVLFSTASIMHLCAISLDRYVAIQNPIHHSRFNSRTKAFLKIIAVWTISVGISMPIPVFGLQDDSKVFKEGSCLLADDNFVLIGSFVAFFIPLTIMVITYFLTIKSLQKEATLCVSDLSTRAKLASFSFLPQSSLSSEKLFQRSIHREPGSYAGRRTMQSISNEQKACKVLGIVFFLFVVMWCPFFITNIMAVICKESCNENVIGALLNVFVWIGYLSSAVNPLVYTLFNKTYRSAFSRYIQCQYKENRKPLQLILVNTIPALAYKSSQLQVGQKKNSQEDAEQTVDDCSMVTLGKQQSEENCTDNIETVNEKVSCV
Chain of Dopamine D2 receptor/Serotonin 2 (5-HT2) receptor (Rattus norvegicus) (P30994 whole entry, looked up): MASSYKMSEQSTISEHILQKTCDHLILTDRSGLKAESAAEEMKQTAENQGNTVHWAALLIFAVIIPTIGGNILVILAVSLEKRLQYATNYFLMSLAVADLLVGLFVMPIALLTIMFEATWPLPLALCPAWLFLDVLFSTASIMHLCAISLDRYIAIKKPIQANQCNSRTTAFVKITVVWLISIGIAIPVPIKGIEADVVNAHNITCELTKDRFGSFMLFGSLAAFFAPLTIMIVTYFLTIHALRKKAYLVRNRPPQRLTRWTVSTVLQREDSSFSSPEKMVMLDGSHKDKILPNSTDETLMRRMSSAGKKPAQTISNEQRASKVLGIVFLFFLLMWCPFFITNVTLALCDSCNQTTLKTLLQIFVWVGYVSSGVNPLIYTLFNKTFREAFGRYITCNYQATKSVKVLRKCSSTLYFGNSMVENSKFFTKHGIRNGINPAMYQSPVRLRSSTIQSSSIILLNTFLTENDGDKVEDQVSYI
Chain of Dopamine D2 receptor/Serotonin 2 (5-HT2) receptor (Rattus norvegicus) (P61169 whole entry, looked up): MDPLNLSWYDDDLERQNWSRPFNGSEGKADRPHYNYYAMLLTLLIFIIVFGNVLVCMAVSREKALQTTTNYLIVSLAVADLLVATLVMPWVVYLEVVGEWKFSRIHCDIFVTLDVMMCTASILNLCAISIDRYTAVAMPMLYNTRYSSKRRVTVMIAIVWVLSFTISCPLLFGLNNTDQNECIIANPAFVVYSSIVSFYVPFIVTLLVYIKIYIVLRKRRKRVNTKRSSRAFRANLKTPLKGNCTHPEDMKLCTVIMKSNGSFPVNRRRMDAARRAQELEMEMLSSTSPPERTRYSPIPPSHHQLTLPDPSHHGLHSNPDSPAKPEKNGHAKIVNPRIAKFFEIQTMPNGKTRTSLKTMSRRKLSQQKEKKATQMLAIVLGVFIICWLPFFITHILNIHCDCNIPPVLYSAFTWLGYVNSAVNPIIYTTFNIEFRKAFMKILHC
In assay [4] the target is T1, D(2) dopamine receptor. Kind of assay: Displacement of [3H]spiperone from dopamine receptor D2. (Displacement assays read how much labelled ligand stays bound in the presence of the test substance.)

T1 sequence (P61169 whole entry): as the sequence (P61169 whole entry, looked up) above

On to `O=C(CCCN1CCC2(CC1)C(=O)N(Cc1ccc([N+](=O)[O-])cc1)CN2c1ccccc1)c1ccc(F)cc1`, for which the figures for the Ki (at D(2) dopamine receptor [1]; in assay [2]) were 0.119 nM and 14 nM, respectively.
On to `CCCCN1CN(c2ccccc2)C2(CCN(CCCC(=O)c3ccc(F)cc3)CC2)C1=O`, for which the Ratio in assay [3] came to 11. The inhibition constant Ki in assay [2] worked out at 0.41 nM; at D(2) dopamine receptor [4], 0.036 nM.
For the compound `COc1ccc(CN2CN(c3ccccc3)C3(CCN(CCCC(=O)c4ccc(F)cc4)CC3)C2=O)cc1`, the Ki at D(2) dopamine receptor [1] is 0.087 nM; in assay [2], 12 nM.
In the same order, the values of `O=C(CCCN1CCC2(CC1)C(=O)N(Cc1ccccc1I)CN2c1ccccc1)c1ccc(F)cc1` are 0.063 nM and 19 nM.
`CC(C)CN1CN(c2ccccc2)C2(CCN(CCCC(=O)c3ccc(F)cc3)CC2)C1=O`: the Ratio in assay [3] amounted to 3.3. Also, the Ki was determined as 0.13 nM in assay [2] and 0.039 nM at D(2) dopamine receptor [4].
As to `O=C(CCCN1CCC2(CC1)C(=O)N(Cc1ccccc1F)CN2c1ccccc1)c1ccc(F)cc1`, the Ratio in assay [3] is 100. In addition, the results for the Ki (in assay [2]; on D(2) dopamine receptor [4]) were 4.4 nM and 0.043 nM, respectively.
Turning to `O=C(CCCN1CCC2(CC1)C(=O)N(Cc1ccc(I)cc1)CN2c1ccccc1)c1ccc(F)cc1`, the results for the Ki (at D(2) dopamine receptor [1]; in assay [2]) were 0.213 nM and 89 nM, respectively.
Consider `CCCN1CN(c2ccccc2)C2(CCN(CCCC(=O)c3ccc(F)cc3)CC2)C1=O`, for which the Ratio in assay [3] was 3.3. Besides, the Ki in assay [2] turned out to be 0.096 nM; at D(2) dopamine receptor [4] it was 0.029 nM.
In the case of `CN1CN(c2ccccc2)C2(CCN(CCCC(=O)c3ccc(F)cc3)CC2)C1=O` [MESPIPERONE], the values for the inhibition constant Ki (on D(2) dopamine receptor [1]; in assay [2]) were 0.118 nM and 0.55 nM, respectively.
Take `O=C(CCCN1CCC2(CC1)C(=O)N(Cc1cccc(F)c1)CN2c1ccccc1)c1ccc(F)cc1`: in assay [3], the Ratio stood at 230. The figures for the Ki (in assay [2]; at D(2) dopamine receptor [4]) were 5.3 nM and 0.023 nM, respectively.
For `CCCCCN1CN(c2ccccc2)C2(CCN(CCCC(=O)c3ccc(F)cc3)CC2)C1=O`, the Ratio in assay [3] stood at 18. For the same compound, the inhibition constant Ki in assay [2] was determined as 1.1 nM; at D(2) dopamine receptor [4] it was 0.062 nM.
In the same order, the values of `O=C(CCCN1CCC2(CC1)C(=O)N(Cc1ccccc1)CN2c1ccccc1)c1ccc(F)cc1` are 140, 3.2 nM and 0.023 nM.
`CC(C)CCN1CN(c2ccccc2)C2(CCN(CCCC(=O)c3ccc(F)cc3)CC2)C1=O`: the Ratio in assay [3] stood at 21. Besides, the Ki in assay [2] stood at 1.3 nM; at D(2) dopamine receptor [4], 0.063 nM.
For `Cc1ccccc1CN1CN(c2ccccc2)C2(CCN(CCCC(=O)c3ccc(F)cc3)CC2)C1=O`, in that order: 290, 9.6 nM and 0.033 nM.
Turning to `O=C(CCCN1CCC2(CC1)C(=O)N(CCc1ccccc1)CN2c1ccccc1)c1ccc(F)cc1`, the Ratio in assay [3] was found to be 29. The results for the Ki (in assay [2]; on D(2) dopamine receptor [4]) were 1 nM and 0.035 nM, respectively.
Turning to `O=C(CCCN1CCC2(CC1)C(=O)N(Cc1ccc(F)cc1)CN2c1ccccc1)c1ccc(F)cc1`, the Ratio in assay [3] turned out to be 300. For the same compound, the Ki in assay [2] came to 21 nM; on D(2) dopamine receptor [4] it was 0.069 nM.
In the case of `CCN1CN(c2ccccc2)C2(CCN(CCCC(=O)c3ccc(F)cc3)CC2)C1=O`, the Ki on D(2) dopamine receptor [1] is 0.057 nM; in assay [2], 0.31 nM.
For `COc1ccccc1CN1CN(c2ccccc2)C2(CCN(CCCC(=O)c3ccc(F)cc3)CC2)C1=O`, in that order: 0.047 nM and 1.9 nM.
As to `Cc1ccc(CN2CN(c3ccccc3)C3(CCN(CCCC(=O)c4ccc(F)cc4)CC3)C2=O)cc1`, the values for the Ki (at D(2) dopamine receptor [1]; in assay [2]) were 0.067 nM and 37 nM, respectively.
For `O=C(CCCN1CCC2(CC1)C(=O)N(Cc1ccccc1[N+](=O)[O-])CN2c1ccccc1)c1ccc(F)cc1`, in that order: 0.12 nM and 0.68 nM.

These data come from ChEMBL document CHEMBL1125573 (J Med Chem, 1992).
